Experimental data from PubChem BioAssay (NCI).
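Here, GI50 denotes the concentration required for 50% inhibition of growth. TGI marks complete inhibition of growth.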

Columns and labels:
Assay in all cases: inhibition of tumour cell growth, NCI panel, 384-well format
CAKI-1 renal = tested on: CAKI-1 renal
CCRF-CEM leukemia = tested on: CCRF-CEM leukemia
EKVX NSCLC = tested on: EKVX NSCLC
HOP-92 NSCLC = tested on: HOP-92 NSCLC
HS 578T breast = tested on: HS 578T breast
MCF7 breast = tested on: MCF7 breast
NCI-H322M lung = tested on: NCI-H322M lung
OVCAR-8 ovarian = tested on: OVCAR-8 ovarian
PC-3 prostate = tested on: PC-3 prostate
SF-268 CNS = tested on: SF-268 CNS
SF-295 CNS = tested on: SF-295 CNS
SK-OV-3 ovarian = tested on: SK-OV-3 ovarian
SW-620 colon = tested on: SW-620 colon

Cc1cc2c(C(C)C)c(O)c(O)c(C=O)c2c(O)c1-c1c(C)cc2c(C(C)C)c(O)c(O)c(C=O)c2c1O (tested in a mixture with another compound)
GI50 (CAKI-1 renal): 2530 nM
TGI (CAKI-1 renal): 5930 nM
GI50 (CCRF-CEM leukemia): 1140 nM
TGI (CCRF-CEM leukemia): 2380 nM
GI50 (EKVX NSCLC): 1850 nM
TGI (EKVX NSCLC): 3970 nM
GI50 (HOP-92 NSCLC): 1780 nM
TGI (HOP-92 NSCLC): 4000 nM
GI50 (HS 578T breast): 1670 nM
TGI (HS 578T breast): 3060 nM
GI50 (MCF7 breast): 2090 nM
TGI (MCF7 breast): 4510 nM
GI50 (NCI-H322M lung): 1670 nM
TGI (NCI-H322M lung): 4140 nM
GI50 (OVCAR-8 ovarian): 1750 nM
TGI (OVCAR-8 ovarian): 3240 nM
GI50 (PC-3 prostate): 1670 nM
TGI (PC-3 prostate): 3520 nM
GI50 (SF-268 CNS): 1660 nM
TGI (SF-268 CNS): 3260 nM
GI50 (SF-295 CNS): 1210 nM
TGI (SF-295 CNS): 2710 nM
GI50 (SK-OV-3 ovarian): 2580 nM
TGI (SK-OV-3 ovarian): 6670 nM
GI50 (SW-620 colon): 2070 nM
TGI (SW-620 colon): 3980 nM
